Reference: patent US5602099A, “δ opioid receptor antagonists” (Aktiebolaget Astra, priority 1993, dated 1997)
Like-named read-outs stand apart in the source and are kept apart here. Peptide text beside a SMILES is read from it.

What was measured:
μ opioid receptor = molecular target: T1, μ opioid receptor (Rattus norvegicus, UniProt P33535); assay: μ opioid receptor binding assay, displacement of [3H]DAMGO from rat brain membranes
T1 construct: Male Sprague-Dawley rats (300-350 g) from the Canadian Breeding Laboratories were decapitated and after removal of the cerebellum the brains were homogenized; from tissue; host or cells: rat brain (without cerebellum) membranes, male Sprague-Dawley
T1 sequence (P33535 whole entry): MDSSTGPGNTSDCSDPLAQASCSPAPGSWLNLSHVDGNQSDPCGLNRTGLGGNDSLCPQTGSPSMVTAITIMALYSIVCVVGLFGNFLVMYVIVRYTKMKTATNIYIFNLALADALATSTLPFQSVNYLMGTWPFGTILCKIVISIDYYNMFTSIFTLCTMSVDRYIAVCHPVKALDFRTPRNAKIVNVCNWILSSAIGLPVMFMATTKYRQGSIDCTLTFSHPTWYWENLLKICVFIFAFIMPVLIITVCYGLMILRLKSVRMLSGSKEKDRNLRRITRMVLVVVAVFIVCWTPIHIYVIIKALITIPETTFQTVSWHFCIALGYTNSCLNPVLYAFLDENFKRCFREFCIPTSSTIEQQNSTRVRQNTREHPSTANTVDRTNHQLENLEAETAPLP
Excerpt: (§1) In the case of κ-ligands guinea pig brain homogenates were used, since the relative proportion of κ-binding sites is higher in guinea pig brain than in rat brain. The experimental procedure being used in our laboratory represents a modified version of the binding assay described by Pasternak et al. (Mol. Pharmacol. 11, 340-351, (1975)). Male Sprague-Dawley rats (300-350 g) from the Canadian Breeding Laboratories were decapitated and after removal of the cerebellum the brains were homogenized in 30 volumes of ice-cold standard buffer (50 mM Tris-HCl, pH 7.7). After centrifugation at 30,000×g for 30 min at 4° C. the membranes were reconstituted in the original volume of standard buffer and incubated for 30 min at 37° C. (to realease bound endogenous ligands). […] The incubation was terminated by filtration through Batman GF/B filters under vacuum at 4° C. Following two washings with 5 ml portions of ice-cold standard buffer the filters were transferred to scintillation vials and treated with 1 ml Protosol (New England Nuclear) for 30 min prior to the addition of 0.5 ml acetic acid and 10 ml Aquasol (New England Nuclear). After shaking for 30 min the vials were counted at an efficiency of 40-45%. All experiments were performed in duplicates and repeated at least three times. […] Values of half-maximal inhibition (IC50) of specific binding were obtained graphically from semilogarithmic plots. From the measured IC50-values, binding inhibition constants (Ki) were then calculated based on Cheng and Prusoff's equation (Biochem, Pharmacol. 22, 3099-3102 (1973)). Ratios of the Ki -values in the μ-, δ- and κ-representative binding assays are a measure of the receptor selectivety of the compound under investigation (e.g. Ki^μ /Ki^δ indicates the selectivity for δ-receptors versus μ-receptors).

δ opioid receptor = molecular target: T2, δ opioid receptor (Rattus norvegicus, UniProt P33533); assay: δ opioid receptor binding assay, displacement of δ-selective radioligand from rat brain membranes; conditions: for Ki^μ /Ki^δ: δ-selectivity ratio
T2 construct: Male Sprague-Dawley rats (300-350 g) from the Canadian Breeding Laboratories were decapitated and after removal of the cerebellum the brains were homogenized; from tissue; host or cells: rat brain (without cerebellum) membranes, male Sprague-Dawley
T2 sequence (P33533 whole entry): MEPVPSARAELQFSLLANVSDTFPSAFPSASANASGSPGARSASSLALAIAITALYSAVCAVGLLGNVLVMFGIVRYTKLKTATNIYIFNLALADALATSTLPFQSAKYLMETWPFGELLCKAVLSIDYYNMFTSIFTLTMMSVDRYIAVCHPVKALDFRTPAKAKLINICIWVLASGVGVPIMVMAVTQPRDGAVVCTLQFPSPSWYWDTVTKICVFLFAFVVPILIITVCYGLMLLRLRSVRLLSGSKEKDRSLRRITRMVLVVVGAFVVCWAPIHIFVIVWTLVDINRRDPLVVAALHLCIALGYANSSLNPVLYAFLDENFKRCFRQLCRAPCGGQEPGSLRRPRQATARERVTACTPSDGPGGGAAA
Excerpt: as §1

δ opioid receptors = molecular target: T3, δ opioid receptors (Mus musculus, UniProt P32300); assay: Mouse vas deferens (MVD) bioassay, antagonism of electrically evoked contraction inhibition by δ-selective agonists; format: tissue-based; conditions: MVD assay, means of 3-8 determinations
T3 construct: Bioassays Using Isolated Organ Preparations; from tissue; host or cells: mouse vas deferens (isolated organ)
T3 sequence (P32300 whole entry): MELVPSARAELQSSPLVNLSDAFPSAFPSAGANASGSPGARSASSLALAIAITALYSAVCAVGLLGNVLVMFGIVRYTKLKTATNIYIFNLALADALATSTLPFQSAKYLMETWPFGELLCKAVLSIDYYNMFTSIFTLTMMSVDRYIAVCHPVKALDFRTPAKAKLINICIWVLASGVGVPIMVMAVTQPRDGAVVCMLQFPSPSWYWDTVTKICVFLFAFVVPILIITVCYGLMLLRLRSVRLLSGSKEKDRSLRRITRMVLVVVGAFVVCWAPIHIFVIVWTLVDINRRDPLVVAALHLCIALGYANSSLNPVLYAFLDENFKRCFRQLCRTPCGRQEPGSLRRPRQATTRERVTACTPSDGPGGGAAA
Excerpt: a) Biosassys based on inhibition of electrically evoked contractions of the mouse vas deferens (MVD) and of the guinea pig ileum (GPI). In the GPI assay the opioid effect is primarily mediated by μ opioid receptors, whereas in the MVD assay the inhibition of the contractions is mostly due to interaction with δ opioid receptors.
The GPI and MVD bioassays were carded out as reported in P. W. Schiller et al., Biochem. Biophys. Res. Commun 85, 1332-1338 (1978) and J. Di Maio et al., J. Med. Chem. 25, 1432-1438 (1982). A log dose-response curve was determind with [Leu^5 ]enkephalin as standard for each ileum and vas preparation, and IC50 values of the compounds being tested were normalized according to A. A Waterfield et al., Eur. J. Pharmacol. 58, 11-18 (1979). […] These determinations were made with the MVD assay, using three different δ-selective agonists ([Leu^5 ] enkephalin, DPDPE and [D-Ala^2 ]deltorphin I].

[1] = rat brain membranes, means of 3 determinations, read-out: Ki^μ
[2] = rat brain membranes, means of 3 determinations, read-out: Ki^.xi.
[3] = Ke (nM) against DPDPE, δ agonist DPDPE
[4] = Ke (nM) against [D-Ala2]deltorphin I, δ agonist [D-Ala2]deltorphin I
[5] = Ke (nM) against [Leu5]Enkephalin, δ agonist [Leu5]enkephalin
[6] = δ agonist DPDPE, read-out: Ke (nM) against DPDPE
[7] = δ agonist [D-Ala2]deltorphin I, read-out: Ke (nM) against [D-Ala2]deltorphin I
[8] = δ agonist [Leu5]enkephalin, read-out: Ke (nM) against [Leu5]Enkephalin

Row | Compound | Ki (μ opioid receptor; [1]) | Ki (δ opioid receptor; [2]) | Ki^μ /Ki^δ (δ opioid receptor) | Ki (μ opioid receptor) | Ki (δ opioid receptor) | Kb (δ opioid receptors; [3]) | Kb (δ opioid receptors; [4]) | Kb (δ opioid receptors; [5]) | Kb (δ opioid receptors; [6]) | Kb (δ opioid receptors; [7]) | Kb (δ opioid receptors; [8]) | δ-selectivity, times less than the δ antagonists of this application (δ opioid receptor; comparison with the δ antagonists described in this patent application)
1 | N=C(N)NCCC[C@H](N)C(=O)N[C@@H](Cc1ccc(O)cc1)C(=O)N1Cc2ccccc2C[C@H]1C(=O)N[C@@H](Cc1ccccc1)C(=O)N[C@@H](Cc1ccccc1)C(N)=O [HArgTyrTicPhePheNH2, H-Arg-Tyr-Tic-Phe-Phe-NH2] (HELM PEPTIDE1{R.Y.[Tic].F.F.[am]}$$$$V2.0) | 107 ± 2 nM | 4.79 nM | 22.3 |  |  |  |  |  |  |  |  | 
2 | Cc1cc(O)cc(C)c1C[C@H](N)C(=O)N1Cc2ccccc2C[C@H]1CN[C@@H](Cc1ccccc1)C(=O)N[C@@H](Cc1ccccc1)C(=O)O [HDmtTic.psi.[CH2NH]PhePheOH, H-Dmt-Tic.PSI.[CH2 --NH]Phe-Phe-OH] |  |  |  | 95.5 nM | 1.7 nM | 0.196 nM | 0.157 nM | 0.259 nM |  |  |  | 
3 | N[C@@H](Cc1ccc(O)cc1)C(=O)N1Cc2ccccc2C[C@H]1C(=O)N[C@@H](Cc1cccc2ccccc12)C(=O)N[C@@H](Cc1ccccc1)C(=O)O [HTyrTic-1-NalPheOH, H-Tyr-Tic-1-Nal-Phe-OH] (HELM PEPTIDE1{Y.[Tic].[O=C([C@H](Cc1cccc2ccccc12)N[*:1])[*:2]].F}$$$$V2.0) |  |  | 982 | 1120 nM | 1.14 nM |  |  |  |  |  |  | 
4 | N[C@@H](Cc1ccc(O)cc1)C(=O)N1Cc2ccccc2C[C@H]1C(=O)N[C@@H](Cc1ccc2ccccc2c1)C(=O)N[C@@H](Cc1ccccc1)C(=O)O [HTyrTic-2-NalPheOH, H-Tyr-Tic-2-Nal-Phe-OH] (HELM PEPTIDE1{Y.[Tic].[O=C([C@H](Cc1ccc2ccccc2c1)N[*:1])[*:2]].F}$$$$V2.0) |  |  | 4830 | 6330 nM | 1.31 nM | 4.41 nM | 4.17 nM | 2.64 nM |  |  |  | 
5 | N[C@@H](Cc1ccc(O)cc1)C(=O)N1Cc2ccccc2C[C@H]1CN[C@@H](Cc1ccccc1)C(=O)O [HTyrTic-.psi.[CH2NH]PheOH, H-Tyr-Tic.PSI.[CH2 -NH]Phe-OH] | 10800 nM | 1.94 nM |  |  |  |  |  |  | 9.06 nM | 8.24 nM | 9.12 nM | 
6 | CN(C[C@@H]1Cc2ccccc2CN1C(=O)[C@@H](N)Cc1ccc(O)cc1)[C@@H](Cc1ccccc1)C(=O)N[C@@H](Cc1ccccc1)C(=O)O [HTyrTic.psi.[CH2NCH3]PhePheOH, H-Tyr-Tic.PSI.[CH2 --NCH3 ]Phe-Phe-OH] | 13400 nM | 0.842 nM |  |  |  |  |  |  | 4.76 nM | 2.89 nM | 6.28 nM | 
7 | N[C@@H](Cc1ccc(O)cc1)C(=O)N1Cc2ccccc2C[C@H]1C(=O)N[C@@H](CCc1ccccc1)C(=O)N[C@@H](Cc1ccccc1)C(=O)O [HTyrTicHfePheOH, H-Tyr-Tic-Hfe-Phe-OH] (HELM PEPTIDE1{Y.[Tic].[O=C([C@H](CCc1ccccc1)N[*:1])[*:2]].F}$$$$V2.0) |  |  | 7180 | 1990 nM | 0.277 nM | 0.609 nM | 0.408 nM | 1.23 nM |  |  |  | 
8 | N[C@@H](Cc1ccc(O)cc1)C(=O)N1Cc2ccccc2C[C@H]1C(=O)N[C@@H](Cc1c[nH]cn1)C(=O)N[C@@H](Cc1ccccc1)C(=O)O [HTyrTicHisPheOH, H-Tyr-Tic-His-Phe-OH] (HELM PEPTIDE1{Y.[Tic].H.F}$$$$V2.0) |  |  | 11500 | 17000 nM | 1.48 nM | 18.2 nM | 18.7 nM | 20.1 nM |  |  |  | 
9 | NC(=O)[C@H](Cc1ccccc1)NC(=O)[C@@H]1Cc2ccccc2CN1C(=O)[C@@H](N)Cc1ccc(O)cc1 [HTyrTicPheNH2, H-Tyr-Tic-Phe-NH2] (HELM PEPTIDE1{Y.[Tic].F.[am]}$$$$V2.0) |  |  | 52.0 |  |  | 96.8 nM | 58.9 nM | 43.9 nM |  |  |  | 
10 | N[C@@H](Cc1ccc(O)cc1)C(=O)N1Cc2ccccc2C[C@H]1C(=O)N[C@@H](Cc1ccccc1)C(=O)O [HTyrTicPheOH, H-Tyr-Tic-Phe-OH] (HELM PEPTIDE1{Y.[Tic].F}$$$$V2.0) | 1280 nM | 9.07 nM | 141 |  |  | 16.1 nM | 12.6 nM | 11.7 nM |  |  |  | 
11 | NC(=O)[C@H](Cc1ccccc1)NC(=O)[C@H](Cc1ccccc1)NC(=O)[C@@H]1Cc2ccccc2CN1C(=O)[C@@H](N)Cc1ccc(O)cc1 [HTyrTicPhePheNH2, H-Tyr-Tic-Phe-Phe-NH2] (HELM PEPTIDE1{Y.[Tic].F.F.[am]}$$$$V2.0) | 78.8 nM | 3 nM |  |  |  |  | 14.4 nM | 15.7 nM | 18 nM |  |  | 
12 | NC(=O)[C@H](CO)NC(=O)[C@@H]1CCCN1C(=O)[C@H](Cc1ccc(O)cc1)NC(=O)[C@H](Cc1ccccc1)NC(=O)[C@H](Cc1ccccc1)NC(=O)[C@@H]1Cc2ccccc2CN1C(=O)[C@@H](N)Cc1ccc(O)cc1 [HTyrTicPhePheTyrProSerNH2, H-Tyr-Tic-Phe-Phe-Tyr-Pro-Ser-NH2] (HELM PEPTIDE1{Y.[Tic].F.F.Y.P.S.[am]}$$$$V2.0) |  |  | 731 | 658 ± 136 nM | 0.9 nM | 4.63 nM | 3.9 nM | 4.78 nM |  |  |  | 
13 | NC(=O)[C@H](Cc1c[nH]c2ccccc12)NC(=O)[C@H](Cc1ccccc1)NC(=O)[C@@H]1Cc2ccccc2CN1C(=O)[C@@H](N)Cc1ccc(O)cc1 [HTyrTicPheTrpNH2, H-Tyr-Tic-Phe-Trp-NH2] (HELM PEPTIDE1{Y.[Tic].F.W.[am]}$$$$V2.0) |  |  | 258 |  |  | 41.3 nM | 38.6 nM | 49.5 nM |  |  |  | 
14 | NC(=O)[C@H](Cc1ccccc1)NC(=O)[C@H](Cc1c[nH]c2ccccc12)NC(=O)[C@@H]1Cc2ccccc2CN1C(=O)[C@@H](N)Cc1ccc(O)cc1 [HTyrTicTrpPheNH2, H-Tyr-Tic-Trp-Phe-NH2] (HELM PEPTIDE1{Y.[Tic].W.F.[am]}$$$$V2.0) |  |  | 709 |  |  | 4.65 nM | 2.31 nM | 3.24 nM |  |  |  | 
15 | N[C@@H](Cc1ccc(O)cc1)C(=O)N1Cc2ccccc2C[C@H]1C(=O)N[C@@H](Cc1c[nH]c2ccccc12)C(=O)N[C@@H](Cc1ccccc1)C(=O)O [HTyrTicTrpPheOH, H-Tyr-Tic-Trp-Phe-OH] (HELM PEPTIDE1{Y.[Tic].W.F}$$$$V2.0) |  |  | 5950 |  |  | 2.56 nM | 1.65 nM | 2.37 nM |  |  |  | 
16 | C=CCN(CC=C)[C@@H](Cc1ccc(O)cc1)C(=O)NC(C)(C)C(=O)NC(C)(C)C(=O)N[C@@H](Cc1ccccc1)C(=O)N[C@@H](CC(C)C)C(=O)O [ICI 174864, N,N-diallyl-Tyr-Aib-Aib-Phe-Leu-OH, reference compound] (HELM PEPTIDE1{[C=CCN(CC=C)[C@@H](Cc1ccc(O)cc1)C(=O)[*:2]].[Aib].[Aib].F.L}$$$$V2.0) |  |  |  |  |  |  |  |  |  |  |  | 10-300 times
